Results reported in patent US8470765B2, “Polypeptides and antibacterial or antiseptic use of same” (AnGes MG, Inc., priority 2009, dated 2013).
Like-named read-outs stand apart in the source and are kept apart here. No end group written: not given here.

Assays:
[1] = tested on: Fusarium solani JCM11383
[2] = tested on: Staphylococcus aureus ATCC29213; assay: ATP Assay (viability at 3 hours), Table 6; assay type: cell-based; conditions: for Staphylococcus aureus ATP (viability, relative value to negative control): 3 h, 5 μg/mL; for viability at 10 µg/mL: ATCC29213, 3 h, read-out: Staphylococcus aureus ATP (viability, relative value to negative control)
Summary of the method: (§1)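 Log-phase bacteria at about 10^5 CFU/mL final in Mueller-Hinton broth were exposed 3 h at 37 °C to peptide (solution prepared at 10 μg/mL before 1:1 mixing with inoculum). ATP (BacTiter-Glo luminescence) relative to untreated wells defined viability; two independent experiments.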

[3] = tested on: Pseudomonas aeruginosa ATCC 27853; assay: ATP Assay (viability at 3 hours), Table 6; assay type: cell-based; conditions: for Pseudomonas aeruginosa ATP (viability, relative value to negative control): 3 h, 5 μg/mL; for viability at 10 µg/mL: ATCC27853, 3 h, read-out: Pseudomonas aeruginosa ATP (viability, relative value to negative control)
Summary of the method: as §1

[4] = tested on: Escherichia coli ATCC 25922; assay: ATP Assay (viability at 3 hours), Table 6; assay type: cell-based; conditions: for Escherichia coli ATP (viability, relative value to negative control): 3 h, 5 μg/mL; for viability at 10 µg/mL: ATCC25922, 3 h, read-out: Escherichia coli ATP (viability, relative value to negative control)
Summary of the method: as §1

[5] = tested on: Trichophyton rubrum NBRC9185
[6] = tested on: Pseudomonas aeruginosa 8 (clinical strain)
Experimental: Bacteria (Escherichia coli ATCC 25922, Pseudomonas aeruginosa ATCC 27853, Staphylococcus aureus ATCC29213, Klebsiella pneumoniae JCM 1662, Enterobacter cloacae JCM 1232, Enterobacter aerogenes JCM 1235 and Staphylococcus epidermidis JCM 2414) were inoculated to Mueller-Hinton broth: MHB or LB medium, and cultured at a temperature and period suited for each strain. From the thus obtained colonies, each strain was inoculated to a fresh liquid medium and cultured for 16 to 20 hours. Then an aliquot having a volume (10 to 50 appropriate to each strain was inoculated to a fresh liquid medium and cultured for 4 to 6 hours, followed by the measurement of the absorbance at 600 nm. After comparing the turbidity with McFarland #0.5, the resultant was diluted with a medium. Each strain was added to about 10^5 CFU/mL (final concentration).
Further, the antibacterial activities against the clinical strains collected and isolated from infected patients were also examined. The tests were carried out for two methicillin-resistant Staphylococcus (MRSA) (MRSA (i) and (ii)), two methicillin-sensitive Staphylococcus (MSSA) (MSSA (i) and (ii)), five Pseudomonas aeruginosa, Pseudomonas aeruginosa 1, Pseudomonas aeruginosa 6, Pseudomonas aeruginosa 8. Pseudomonas aeruginosa 9 and Pseudomonas aeruginosa 12, totally 9 clinical strains. The MRSA and MSSA clinical strains were tested by the same method as Staphylococcus aureus ATCC29213, and Pseudomonas clinical strains were tested by the same method as Pseudomonas aeruginosa ATCC 27853.
Each of the peptide solutions to be tested was diluted with MHB to obtain a solution of 128 μg/mL. This solution was serially diluted with the medium to prepare peptide-containing media having concentrations of 128, 64, 32, 16, 8.0, 4.0 and 2.0 μg/mL respectively. […] By dilution with sterilized purified water to 1.0 mg/mL, positive control-containing media having concentrations of 16, 8, 4, 2, 1.0, 0.25, 0.12 and 0.06 μg/mL, respectively for TOB; 0.5, 0.12 and 0.06 μg/mL, respectively, for OX; and 16, 8, 4, 2, 1.0, 0.25, 0.12, 0.06, 0.06, 0.03 and 0.008 μg/mL, respectively, for MEPM, were prepared.
To a 96-well microtiter plate, 0.1 mL of the inoculation solution and 0.1 mL of the peptide- or positive control-containing medium having the respective concentration were added, and cultured at 37° C. for 16 to 24 hours (or a time period suited for the growth of the respective strain). The well not containing the sample was used as a negative control. After the culturing, the growth was visually observed, and the minimum concentration at which the growth was inhibited was defined as the minimum growth inhibition concentration (MIC).
The medium used in this test for bacteria was Mueller-Hinton broth. Independent experiments were carried out twice or more for each strain.

[7] = Table 4, two tests, first/second value where not identical
[8] = Table 4, clinical strain, first/second value where not identical

Row | Compound | MIC Fusarium solani ([1]; JCM11383) [µg/mL] | Staphylococcus aureus ATP (viability, relative value to negative control) [2] | Pseudomonas aeruginosa ATP (viability, relative value to negative control) [3] | Escherichia coli ATP (viability, relative value to negative control) [4] | MIC Trichophyton rubrum ([5]; NBRC9185) [µg/mL] | MIC Pseudomonas aeruginosa 8 ([6]; 8 (clinical strain)) [µg/mL] | MIC Fusarium solani [1, 7] | MIC Trichophyton rubrum [5, 7] | MIC Pseudomonas aeruginosa 8 [6, 8] | viability at 10 µg/mL [2] [%] | viability at 10 µg/mL [3] [%] | viability at 10 µg/mL [4] [%]
1 | RLKRMRKRLKRKLRLWHRKRYK-NH2 [SRP-8] | 4 | 0.4 | 0.9 | 1.7 | 128 | 16 |  |  |  |  |  | 
2 | GRLKRMGKRLKRKIQKWARW-NH2 [SRP-14] | 4 | 0.3 | 1.0 | 1.2 | 32 | 16 |  |  |  |  |  | 
3 | KLIFLRELRRLRKRLKRKLR-NH2 [SRP-16] |  | 0.4 | 1.0 | 0.9 |  | 16 | 4/8 | 64/32 |  |  |  | 
4 | IFLHRLKRMRKRLKRKLRLW-OH [SRP-7] | 8 | 0.2 | 1.0 | 1.6 |  | 32 |  | 64/32 |  |  |  | 
5 | KNLRRIIRKIIHIIKKYG-NH2 [Ovispirin-1, reference compound] |  |  |  |  | 64 |  | 4/8 |  | 32/64 |  |  | 
6 | GRLKRMGERLKRKIQKWIRW-NH2 [SRP-15] |  | 0.3 | 1.6 | 0.5 | 64 | 16 | 16/32 |  |  |  |  | 
7 | NC[C@H]1O[C@H](O[C@H]2[C@H](O)[C@@H](O[C@H]3O[C@H](CO)[C@@H](O)[C@H](N)[C@H]3O)[C@H](N)C[C@@H]2N)[C@H](N)C[C@@H]1O [tobramycin, reference compound] |  |  |  |  |  |  |  |  |  | 6.7 | 1.2 | 74.3
8 | RLKRMRKRLKRKLRLW-NH2 [SRP-17] | 8 | 0.3 | 1.0 | 0.4 |  |  |  | 64/32 | 64/128 |  |  | 
9 | KLIFLHRLKRELRKRLKRKLR-NH2 [SRP-13] |  | 2.0 | 2.2 | 2.2 |  | 16 | 4/8 | 128/64 |  |  |  | 
10 | C[C@@H](O)[C@H]1C(=O)N2C(C(=O)O)=C(S[C@@H]3CN[C@H](C(=O)N(C)C)C3)[C@H](C)[C@H]12 [meropenem, reference compound] |  |  |  |  |  |  |  |  |  | 15.7 | 16.1 | 15.3
11 | LIFLHRLKRMRKRLKRKLRL-NH2 [SRP-12] |  | 0.2 | 1.0 | 6.5 |  |  |  |  | 32/64 |  |  | 
